Patent publication US7122321B2, “High throughput method for functionally classifying proteins identified using a genomics approach” (Johnson & Johnson Pharmaceutical Research & Development, …, priority 1997, dated 2006)

Columns and labels:
[1] = system: pigeon liver arylamine acetyltransferase; experiment: microplate thermal shift assay, arylamine acetyltransferase; type: binding; conditions: Arylamine Acetyl transferase
[2] = molecular target: T1, porcine liver formimino glutamic acid transferase (Sus scrofa, UniProt P53603); experiment: microplate thermal shift assay, formimino glutamic acid transferase; type: binding; conditions: Formimino L-Glutamic acid Transferase
T1 construct: porcine liver formimino glutamic acid transferase (FGT, Sigma); purchased Sigma; host or cells: porcine liver
T1 sequence (P53603 1-541): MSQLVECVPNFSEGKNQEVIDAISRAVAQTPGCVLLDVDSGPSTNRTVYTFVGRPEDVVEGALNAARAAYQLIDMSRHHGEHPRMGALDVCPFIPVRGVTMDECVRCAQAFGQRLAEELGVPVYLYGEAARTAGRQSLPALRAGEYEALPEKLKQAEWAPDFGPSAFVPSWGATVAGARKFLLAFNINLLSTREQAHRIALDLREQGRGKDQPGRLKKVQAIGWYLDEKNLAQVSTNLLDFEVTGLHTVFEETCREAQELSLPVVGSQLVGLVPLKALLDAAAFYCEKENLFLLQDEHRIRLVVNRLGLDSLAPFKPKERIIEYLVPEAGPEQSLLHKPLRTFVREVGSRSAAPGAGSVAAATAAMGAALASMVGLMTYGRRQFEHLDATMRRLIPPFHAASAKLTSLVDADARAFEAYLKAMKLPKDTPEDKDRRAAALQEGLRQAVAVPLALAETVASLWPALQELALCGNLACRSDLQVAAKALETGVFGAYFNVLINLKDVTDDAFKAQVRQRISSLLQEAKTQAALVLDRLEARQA
Protocol: Folic acid binding can be assayed using the microplate thermal shift assay. Bovine liver dihydrofolate reductase (DHFR, Sigma), chicken liver dihydrofolate reductase (DHFR, Sigma), pigeon liver arylamine acetyltransferase (ArAcT, Sigma), and porcine liver formimino glutamic acid transferase (FGT, Sigma) were each dissolved in Buffer A (50 mM HEPES, pH 7.5, 100 mM NaCl) to generate stock solutions at a final concentration of 2 mg/mL. Solutions of dihydrofolic acid (FAH2), methotrexate, nicotinamide adenine dinucleotide phosphate (NADP), were prepared by dissolving solid material into Buffer A immediately prior to use. Dapoxyl™ 12800 solution was prepared by diluting a stock of 20 mM Dapoxyl™, 12800 in dimethyl sulfoxide to the appropriate concentration in Buffer A.
For the thermal shift assay, four 10 μL aliquots of each assay mixture were dispensed into four wells located in different quadrants of an MJ Research 384-well thermocycler plate. 10 μL of mineral oil was then added to each of the four wells to prevent evaporation. Each data point shown was collected by heating the plate at the temperature shown for three minutes, followed by incubation at 25° C. for one minute, followed by UV illumination and collection of the data.

[3] = molecular target: T2, chicken liver dihydrofolate reductase (Gallus gallus, UniProt P00378); experiment: microplate thermal shift assay, chicken DHFR; type: binding; conditions: for ΔTm of ligand complexed with DHFR: DHFR (chicken), single ligand 10 mM
T2 construct: chicken liver dihydrofolate reductase (DHFR, Sigma); purchased Sigma; host or cells: chicken liver
T2 sequence (P00378 1-189): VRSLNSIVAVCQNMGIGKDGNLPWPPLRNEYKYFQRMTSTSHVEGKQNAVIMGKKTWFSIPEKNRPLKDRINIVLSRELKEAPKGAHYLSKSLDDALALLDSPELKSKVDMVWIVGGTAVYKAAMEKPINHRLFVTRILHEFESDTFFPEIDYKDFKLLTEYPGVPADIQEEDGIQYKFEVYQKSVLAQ

[4] = molecular target: T3, Bovine liver dihydrofolate reductase (Bos taurus, UniProt P00376); experiment: microplate thermal shift assay, bovine DHFR; type: binding; parameters: Bovine liver dihydrofolate reductase (DHFR, Sigma); purchased Sigma; host or cells: bovine liver; conditions: for ΔTm of ligand complexed with DHFR: DHFR (cow), single ligand 10 mM
T3 sequence (P00376 1-187): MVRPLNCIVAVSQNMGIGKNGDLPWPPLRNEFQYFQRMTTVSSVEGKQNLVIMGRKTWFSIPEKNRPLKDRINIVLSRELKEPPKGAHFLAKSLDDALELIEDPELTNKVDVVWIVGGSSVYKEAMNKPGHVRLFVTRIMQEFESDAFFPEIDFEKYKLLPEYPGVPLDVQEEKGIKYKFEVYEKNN

human α-thrombin (human) [5] = molecular target: human α-thrombin (human) (UniProt P00734); experiment: microplate thermal shift assay, Kd at 298 K estimated, hirudin peptide binding thrombin in the presence of 200 µM heparin 5000
human α-thrombin (human) [6] = molecular target: human α-thrombin (human) (UniProt P00734); experiment: microplate thermal shift assay, 50 µM hirudin peptide added to thrombin in the presence of 50 µM 3DP-4660 (shift against TH/3dp-4660)
human α-thrombin (human) [7] = molecular target: human α-thrombin (human) (UniProt P00734); experiment: microplate thermal shift assay, Kd at 298 K estimated, hirudin peptide binding thrombin in the presence of 50 µM 3DP-4660
human α-thrombin (human) [8] = molecular target: human α-thrombin (human) (UniProt P00734); experiment: microplate thermal shift assay, Kd at Tm, hirudin peptide binding thrombin in the presence of 50 µM 3DP-4660
human α-thrombin (human) [9] = molecular target: human α-thrombin (human) (UniProt P00734); experiment: microplate thermal shift assay, 1 µM thrombin + 50 µM hirudin peptide alone
human α-thrombin (human) [10] = molecular target: human α-thrombin (human) (UniProt P00734); experiment: microplate thermal shift assay, Kd at Tm, hirudin peptide binding thrombin in the presence of 200 µM heparin 5000
human α-thrombin (human) [11] = molecular target: human α-thrombin (human) (UniProt P00734); experiment: microplate thermal shift assay, 50 µM hirudin peptide added to thrombin in the presence of 200 µM heparin 5000 (shift against TH/Heparin 5000)
Bovine muscle myosin = experiment: microplate thermal shift assay of ATP binding, myosin
Protocol: (§1) Bovine muscle myosin (Sigma), bovine heart 3′–5′ cAMP-dependent protein kinase (Sigma), and chicken muscle pyruvate kinase (Sigma) were each dissolved in Buffer A to generate stock solutions at a final concentration of 2 mg/mL. […] 10 μL of mineral oil was then added to each of the four wells to prevent evaporation. Each data point shown was collected by heating the plate at the temperatures shown for three minutes. For example, the plate was heated to a given temperature, and then allowed to cool to 25 ° C. for one minute, followed by UV illumination and collection of the data. Then the plate was heated to the next higher temperature, and so forth. UV illumination was performed using a long wavelength illumination at […]–420 nm, having a peak at 365 nm. Fluorescence was imaged using a CCD camera having a bandpass filter centered at 550 nm.

[12] = molecular target: T4, chicken muscle pyruvate kinase (Gallus gallus, UniProt P00548); experiment: microplate thermal shift assay of ATP binding, pyruvate kinase; conditions: 10 mM, standard deviation in parentheses
T4 construct: chicken muscle pyruvate kinase (Sigma); purchased Sigma; host or cells: chicken muscle
Protocol: as §1

[13] = molecular target: T5, bovine heart 3′–5′ cAMP-dependent protein kinase (Bos taurus, UniProt P00517); experiment: microplate thermal shift assay of ATP binding, cAMP-dependent protein kinase
T5 construct: bovine heart 3′–5′ cAMP-dependent protein kinase (Sigma); purchased Sigma; host or cells: bovine heart

D(II) FGFR1 = molecular target: T6, D(II) FGFR1 (Homo sapiens, UniProt P11362); experiment: functional probe library screen (microplate thermal shift assay) against D(II) FGFR1; type: binding; conditions: functional probe library Plate 1; for effect on thermal stability of D(II) FGFR1: 50 μM D(II) FGFR1
T6 construct: domain II of the fibroblast growth factor receptor 1 (D(II)FGFR1); hexa-histidine (N); made in house; host or cells: E. coli (renatured from inclusion bodies)
T6 sequence (P11362 158-246 limits assumed): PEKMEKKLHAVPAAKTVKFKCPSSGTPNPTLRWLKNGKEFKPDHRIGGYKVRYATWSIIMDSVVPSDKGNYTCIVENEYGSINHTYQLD
From the text: The compounds in functional probe library Plate 1 was also employed to generate an activity spectrum for D(II) FGFR1. D(II) FGFR1 was cloned and expressed in E. coli. Recombinant D(II) FGFR1 was renatured from inclusion bodies essentially as described (Wetmore, D. R. et al., Proc. Soc. Mtg., San Diego, Calif. (1994)), except that a hexa-histidine tag was included at the N-terminus to facilitate recovery by affinity chromatography on a Ni^2+ chelate column (Janknecht, R. et al., Natl. Acad Sci. USA 88:8972–8976 (1991)). D(II) FGFR1 was further purified on a heparin-sepharose column (Kan, M. et al., Science 259:1918–1921 (1993); Pantoliano, M. W. et al., Biochemistry 33:10229–10248 (1994)). Purity was >95%, as judged by SDS-PAGE. The D(II) FGFR1 protein was concentrated to 12 mg/mL (˜1 mM) and stored at 4° C.
Reactions were prepared in 96-well polycarbonate microtitre plate v-bottom wells. The final concentration of D(II) FGFR1 was 50 μM in […], pH 8 in each well of a 96-well polycarbonate microtitre plate.
The fluorescence emission was measured at 460 nm.

[14] = molecular target: T3, Bovine liver dihydrofolate reductase; experiment: microplate thermal shift assay, bovine DHFR; type: binding; parameters: Kd; Kd; Tm of the thermal unfolding curve; control 47.2° C; control 50.8° C; ΔTm; conditions: FIG. 12
[15] = Myosin, 10 mM, standard deviation in parentheses

T4 sequence (P00548 whole entry): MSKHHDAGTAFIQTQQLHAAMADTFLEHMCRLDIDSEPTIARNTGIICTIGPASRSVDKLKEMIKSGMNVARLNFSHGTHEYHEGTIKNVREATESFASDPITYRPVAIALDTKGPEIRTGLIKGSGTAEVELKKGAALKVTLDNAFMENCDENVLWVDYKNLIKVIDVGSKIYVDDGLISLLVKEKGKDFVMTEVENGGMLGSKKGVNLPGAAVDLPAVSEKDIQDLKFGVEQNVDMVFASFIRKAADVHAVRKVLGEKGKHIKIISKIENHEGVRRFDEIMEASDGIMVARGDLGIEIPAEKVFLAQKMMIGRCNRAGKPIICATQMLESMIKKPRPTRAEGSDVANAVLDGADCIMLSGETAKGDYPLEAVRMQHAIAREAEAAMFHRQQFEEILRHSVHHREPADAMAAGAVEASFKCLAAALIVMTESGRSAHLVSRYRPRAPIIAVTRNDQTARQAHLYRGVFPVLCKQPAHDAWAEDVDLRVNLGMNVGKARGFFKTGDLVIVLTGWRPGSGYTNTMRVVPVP

nicotinamide adenine dinucleotide phosphate [NADP]
ΔTm ([1]; 5 mM): 2.8 (±0.4)
ΔTm ([2]; 5 mM): 0.0 (±0.2)
ΔTm of ligand complexed with DHFR [3]: 7.5 degrees
ΔTm ([3]; DHFR (second row, reference Tm 56.6), 5 mM): 3.8 (±0.4)
ΔTm of ligand complexed with DHFR [4]: 6.3 degrees
ΔTm ([4]; DHFR (first row, reference Tm 52.47), 5 mM): 3.2 (±0.13)

Hirugen (hirudin 53-64) (Sigma) (from UniProt P09945 60-71) (peptide)
Kd (human α-thrombin (human) [5]): 478 nM
ΔTm (human α-thrombin (human) [6]): 4.6 ° K.
Kd (human α-thrombin (human) [7]): 54 nM
Kd (human α-thrombin (human) [8]): 731 nM
ΔTm (human α-thrombin (human) [9]): 5.8 ° K.
Kd (human α-thrombin (human) [10]): 4250 nM
ΔTm (human α-thrombin (human) [11]): 2.6 ° K.

Nc1ncnc2c1ncn2[C@@H]1O[C@H](COP(=O)(O)OP(=O)(O)OP(O)(O)=S)[C@@H](O)[C@H]1O [ATP-γ-S, adenosinetriphosphate-γ-S]
ΔTm (Bovine muscle myosin; [15]): 0.0 (±0.2) ° C.
ΔTm [12]: 0.8 (±0.11) ° C.
ΔTm ([13]; 3′–5′ cAMP Protein kinase, 10 mM, standard deviation in parentheses): 5.6 (±1.7) ° C.
Tm of the thermal unfolding curve ([13]; (+) ATP-γ-S, FIG. 10, control 46.2° C.): 51.8 °C
Kd ([13]; FIG. 10): 200000 nM
ΔTm ([13]; FIG. 10): 5.6 °C

O=C[C@H](O)[C@@H](O)[C@H](O)[C@H](O)CO [D(+)-glucose]
effect on thermal stability of D(II) FGFR1 (D(II) FGFR1): stabilize

OC[C@H]1O[C@@](CO)(O[C@H]2O[C@H](CO)[C@@H](O)[C@H](O)[C@H]2O)[C@@H](O)[C@@H]1O [D(+)-sucrose]
effect on thermal stability of D(II) FGFR1 (D(II) FGFR1): stabilize

OC[C@@H](O)[C@@H](O)[C@H](O)[C@@H](O)CO [sorbitol]
effect on thermal stability of D(II) FGFR1 (D(II) FGFR1): stabilize

OC[C@@H](O)[C@H](O)[C@@H](O)CO [xylitol]
effect on thermal stability of D(II) FGFR1 (D(II) FGFR1): stabilize

NC(=O)C1=CN([C@@H]2O[C@H](COP(=O)(O)OP(=O)(O)OC[C@H]3O[C@@H](n4cnc5c(N)ncnc54)[C@H](OP(=O)(O)O)[C@@H]3O)[C@@H](O)[C@H]2O)C=CC1 [NADPH, nicotinamide adenine dinucleotide phosphate-reduced form]
Tm of the thermal unfolding curve ([14]; (+) NADPH 10 mM, control 50.8° C.): 53.8 °C
Kd [14]: 700 nM
ΔTm ([14]; NADPH 10 mM): 3 °C
ΔTm of ligand complexed with DHFR [3]: 11.9 degrees
ΔTm of ligand complexed with DHFR [4]: 9.7 degrees

O=P(O)(O)OP(=O)(O)OP(=O)(O)O [tri-polyphosphate]
thermal shift of D(II) FGFR1 (D(II) FGFR1; largest shift): about 11 °C

Nc1ncnc2c1ncn2[C@@H]1O[C@H](COP(=O)(O)OP(=O)(O)OP(=O)(O)O)[C@@H](O)[C@H]1O [ATP, adenosine triphosphate]
Tm of the thermal unfolding curve (Bovine muscle myosin; (+)ATP, FIG. 9, control 49.3° C.): 51.4 °C
Kd (Bovine muscle myosin; FIG. 9): 440000 nM
ΔTm (Bovine muscle myosin; FIG. 9): 2.1 °C
ΔTm (Bovine muscle myosin; [15]): 2.2 (±0.4) ° C.
ΔTm at 10000 µM [12]: -0.44 °C

Nc1nc2c(c(=O)[nH]1)N=C(CNc1ccc(C(=O)N[C@@H](CCC(=O)O)C(=O)O)cc1)CN2 [FAH2, dihydrofolic acid]
ΔTm ([1]; 100 μM): −1.8 (±0.5)
ΔTm at 100 µM [2]: 3.62 °C

CN(Cc1cnc2nc(N)nc(N)c2n1)c1ccc(C(=O)N[C@@H](CCC(=O)O)C(=O)O)cc1 [Methotrexate, methotrexate]
ΔTm ([1]; 100 μM): 1.0 (±0.4)
ΔTm at 100 µM [2]: 0.9 °C
